Literature values, collected in patent US5891887A, “Use of [R-(Z)]-α-(methoxyimino)-α-(1-azabicyclo [2.2.2.]oct-3-yl)acetonitrile to reduce amyloid βA4 formation in alzheimer's disease” (priority 1994, dated 1999).

Tested on: m1 and/or m3 receptor subtypes
Conditions: by activation of m1 and/or m3 receptor subtypes; literature

Structure (SMILES) | Production of non-amyloidogenic APP fragments
CCCCCCOc1nsnc1C1=CCCN(C)C1 [xanomeline] | enhance
CC(C[N+](C)(C)C)OC(N)=O (stereo not drawn) [bethanechol] | enhance
CC1OC2(CS1)CN1CCC2CC1 (stereo not drawn) [AF-102B] | enhance
